Experimental data from patent US8846704B2, “Thiopyrimidine-based compounds and uses thereof” (YM Biosciences Austraila Pty Ltd, priority 2007, dated 2014).

Legend:
Format in all cases: biochemical
[1] = target: T1, Bmx(h) (Homo sapiens, UniProt P51813); assay: Upstate KinaseProfiler enzyme assay, Bmx; conditions: 500 nM compound; read-out: Percent inhibition at 500 nM Bmx(h)
T1 construct: purchased Upstate Biotechnology (Dundee, UK), KinaseProfiler service
T1 sequence (P51813 1-675): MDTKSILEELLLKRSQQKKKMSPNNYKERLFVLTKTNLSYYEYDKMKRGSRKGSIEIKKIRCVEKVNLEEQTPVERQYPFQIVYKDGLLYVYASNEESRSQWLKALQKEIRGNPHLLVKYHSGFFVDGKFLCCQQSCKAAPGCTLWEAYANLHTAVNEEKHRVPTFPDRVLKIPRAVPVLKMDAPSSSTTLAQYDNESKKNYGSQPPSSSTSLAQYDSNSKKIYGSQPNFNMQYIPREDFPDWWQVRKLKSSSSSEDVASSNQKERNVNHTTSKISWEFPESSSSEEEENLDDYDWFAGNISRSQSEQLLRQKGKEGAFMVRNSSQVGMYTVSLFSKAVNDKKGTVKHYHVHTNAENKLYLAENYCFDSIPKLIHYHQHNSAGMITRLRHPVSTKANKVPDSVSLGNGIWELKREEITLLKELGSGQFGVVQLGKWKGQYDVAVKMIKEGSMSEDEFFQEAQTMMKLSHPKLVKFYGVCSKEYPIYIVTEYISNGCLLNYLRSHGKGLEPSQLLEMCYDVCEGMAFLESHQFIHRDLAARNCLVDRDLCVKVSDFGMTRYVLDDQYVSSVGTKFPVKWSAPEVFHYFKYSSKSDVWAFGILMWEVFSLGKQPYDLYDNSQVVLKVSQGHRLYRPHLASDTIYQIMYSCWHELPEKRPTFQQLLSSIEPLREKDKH
Procedure: (§1) Further enzyme assays were conducted at Upstate Biotechnology (Dundee, UK) in the KinaseProfiler™ Assay system.
(§2) The general protocol is as follows. All kinases are pre-diluted to a 10× working concentration prior to addition into the assay. The composition of the dilution buffer for the kinases is 20 mM MOPS pH 7.0, 1 mM EDTA, 0.1% β-mercaptoethanol, 0.01% Brij-35, 5% glycerol, 1 mg/ml BSA. All substrates are dissolved and diluted to working stocks in de-ionised water.

[2] = target: T2, BTK(h) (Homo sapiens, UniProt Q06187); assay: Upstate KinaseProfiler enzyme assay, BTK; conditions: 500 nM compound; read-out: Percent inhibition at 500 nM BTK(h)
T2 construct: purchased Upstate Biotechnology (Dundee, UK), KinaseProfiler service
T2 sequence (Q06187 whole entry): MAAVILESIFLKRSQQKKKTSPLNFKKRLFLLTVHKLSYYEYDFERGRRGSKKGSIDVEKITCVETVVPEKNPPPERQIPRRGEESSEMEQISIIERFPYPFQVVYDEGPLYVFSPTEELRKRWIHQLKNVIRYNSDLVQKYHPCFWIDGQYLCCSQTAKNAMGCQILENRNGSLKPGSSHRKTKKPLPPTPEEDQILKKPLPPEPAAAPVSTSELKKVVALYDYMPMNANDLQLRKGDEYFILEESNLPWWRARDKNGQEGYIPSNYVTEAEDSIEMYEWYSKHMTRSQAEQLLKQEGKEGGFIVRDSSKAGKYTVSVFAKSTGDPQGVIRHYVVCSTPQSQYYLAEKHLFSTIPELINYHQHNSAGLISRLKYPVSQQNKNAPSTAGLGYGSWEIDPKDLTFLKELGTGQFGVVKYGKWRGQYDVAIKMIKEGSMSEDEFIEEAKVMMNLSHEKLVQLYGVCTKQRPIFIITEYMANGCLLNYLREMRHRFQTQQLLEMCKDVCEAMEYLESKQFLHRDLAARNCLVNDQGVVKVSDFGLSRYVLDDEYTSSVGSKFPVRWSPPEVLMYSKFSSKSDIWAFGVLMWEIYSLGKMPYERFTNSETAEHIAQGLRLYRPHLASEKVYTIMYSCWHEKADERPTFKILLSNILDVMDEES
Procedure: as §1, §2

[3] = target: T3, Blk(m) (Mus musculus, UniProt P16277); assay: Upstate KinaseProfiler enzyme assay, Blk; conditions: 500 nM compound; read-out: Percent inhibition at 500 nM Blk(m)
T3 construct: purchased Upstate Biotechnology (Dundee, UK), KinaseProfiler service
T3 sequence (P16277 whole entry): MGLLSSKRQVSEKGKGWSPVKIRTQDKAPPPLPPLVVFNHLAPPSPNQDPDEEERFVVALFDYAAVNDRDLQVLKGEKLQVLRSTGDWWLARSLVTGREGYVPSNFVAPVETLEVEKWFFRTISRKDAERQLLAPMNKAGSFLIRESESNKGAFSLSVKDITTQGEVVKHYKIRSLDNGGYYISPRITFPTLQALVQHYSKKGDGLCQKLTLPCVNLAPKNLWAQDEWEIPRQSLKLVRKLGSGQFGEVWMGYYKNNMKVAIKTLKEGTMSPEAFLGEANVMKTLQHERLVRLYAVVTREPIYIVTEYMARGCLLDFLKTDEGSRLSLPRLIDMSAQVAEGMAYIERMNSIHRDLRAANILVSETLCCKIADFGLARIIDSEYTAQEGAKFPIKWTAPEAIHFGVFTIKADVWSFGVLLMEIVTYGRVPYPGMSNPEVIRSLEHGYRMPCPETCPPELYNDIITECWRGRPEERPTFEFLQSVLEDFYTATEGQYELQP
Procedure: as §1, §2

[4] = target: T4, KDR(h) (Homo sapiens, UniProt P35968); assay: Upstate KinaseProfiler enzyme assay, KDR; conditions: 500 nM compound; read-out: Percent inhibition at 500 nM KDR(h)
T4 construct: purchased Upstate Biotechnology (Dundee, UK), KinaseProfiler service
Procedure: as §1, §2

[5] = target: T5, Flt 1(h) (Homo sapiens, UniProt P17948); assay: Upstate KinaseProfiler enzyme assay, Flt 1; conditions: 500 nM compound; read-out: Percent inhibition at 500 nM Flt 1(h)
T5 construct: purchased Upstate Biotechnology (Dundee, UK), KinaseProfiler service
T5 sequence (P17948 27-1338): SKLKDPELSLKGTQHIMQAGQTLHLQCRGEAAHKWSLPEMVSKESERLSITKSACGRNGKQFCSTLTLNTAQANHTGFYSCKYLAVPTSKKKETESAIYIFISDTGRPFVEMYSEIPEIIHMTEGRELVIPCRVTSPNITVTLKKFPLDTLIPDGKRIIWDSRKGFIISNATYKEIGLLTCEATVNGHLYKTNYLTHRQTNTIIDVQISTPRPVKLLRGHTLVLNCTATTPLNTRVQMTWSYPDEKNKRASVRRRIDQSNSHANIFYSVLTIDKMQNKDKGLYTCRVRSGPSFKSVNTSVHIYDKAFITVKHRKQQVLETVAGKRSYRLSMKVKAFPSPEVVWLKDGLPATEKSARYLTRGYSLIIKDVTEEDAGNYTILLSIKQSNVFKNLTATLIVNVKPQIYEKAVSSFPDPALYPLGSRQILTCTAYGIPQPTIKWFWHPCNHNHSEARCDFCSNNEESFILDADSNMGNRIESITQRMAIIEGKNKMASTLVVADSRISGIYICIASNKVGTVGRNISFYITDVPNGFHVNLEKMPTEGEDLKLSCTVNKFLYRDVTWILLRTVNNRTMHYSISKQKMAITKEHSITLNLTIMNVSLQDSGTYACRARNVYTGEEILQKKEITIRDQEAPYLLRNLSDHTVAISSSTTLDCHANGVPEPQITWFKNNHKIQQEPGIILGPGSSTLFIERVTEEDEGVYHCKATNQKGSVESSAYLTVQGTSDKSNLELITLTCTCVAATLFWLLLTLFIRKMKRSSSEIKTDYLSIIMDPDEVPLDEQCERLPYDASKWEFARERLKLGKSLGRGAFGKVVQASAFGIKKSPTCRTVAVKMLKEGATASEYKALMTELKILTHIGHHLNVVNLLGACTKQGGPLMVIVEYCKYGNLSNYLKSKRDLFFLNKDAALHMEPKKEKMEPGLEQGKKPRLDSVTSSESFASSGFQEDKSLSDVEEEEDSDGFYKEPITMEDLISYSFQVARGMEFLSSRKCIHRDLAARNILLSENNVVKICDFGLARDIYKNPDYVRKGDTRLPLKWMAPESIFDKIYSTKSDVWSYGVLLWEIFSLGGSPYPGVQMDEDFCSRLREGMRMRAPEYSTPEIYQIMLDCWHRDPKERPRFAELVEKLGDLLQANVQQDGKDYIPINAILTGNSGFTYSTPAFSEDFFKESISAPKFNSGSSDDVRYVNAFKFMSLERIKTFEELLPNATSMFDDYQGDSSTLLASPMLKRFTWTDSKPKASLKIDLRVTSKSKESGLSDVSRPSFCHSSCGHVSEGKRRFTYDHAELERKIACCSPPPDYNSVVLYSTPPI
Procedure: as §1, §2

[6] = target: T6, Flt 4(h) (Homo sapiens, UniProt P35916); assay: Upstate KinaseProfiler enzyme assay, Flt 4; conditions: 500 nM compound; read-out: Percent inhibition at 500 nM Flt 4(h)
T6 construct: purchased Upstate Biotechnology (Dundee, UK), KinaseProfiler service
T6 sequence (P35916 25-1363): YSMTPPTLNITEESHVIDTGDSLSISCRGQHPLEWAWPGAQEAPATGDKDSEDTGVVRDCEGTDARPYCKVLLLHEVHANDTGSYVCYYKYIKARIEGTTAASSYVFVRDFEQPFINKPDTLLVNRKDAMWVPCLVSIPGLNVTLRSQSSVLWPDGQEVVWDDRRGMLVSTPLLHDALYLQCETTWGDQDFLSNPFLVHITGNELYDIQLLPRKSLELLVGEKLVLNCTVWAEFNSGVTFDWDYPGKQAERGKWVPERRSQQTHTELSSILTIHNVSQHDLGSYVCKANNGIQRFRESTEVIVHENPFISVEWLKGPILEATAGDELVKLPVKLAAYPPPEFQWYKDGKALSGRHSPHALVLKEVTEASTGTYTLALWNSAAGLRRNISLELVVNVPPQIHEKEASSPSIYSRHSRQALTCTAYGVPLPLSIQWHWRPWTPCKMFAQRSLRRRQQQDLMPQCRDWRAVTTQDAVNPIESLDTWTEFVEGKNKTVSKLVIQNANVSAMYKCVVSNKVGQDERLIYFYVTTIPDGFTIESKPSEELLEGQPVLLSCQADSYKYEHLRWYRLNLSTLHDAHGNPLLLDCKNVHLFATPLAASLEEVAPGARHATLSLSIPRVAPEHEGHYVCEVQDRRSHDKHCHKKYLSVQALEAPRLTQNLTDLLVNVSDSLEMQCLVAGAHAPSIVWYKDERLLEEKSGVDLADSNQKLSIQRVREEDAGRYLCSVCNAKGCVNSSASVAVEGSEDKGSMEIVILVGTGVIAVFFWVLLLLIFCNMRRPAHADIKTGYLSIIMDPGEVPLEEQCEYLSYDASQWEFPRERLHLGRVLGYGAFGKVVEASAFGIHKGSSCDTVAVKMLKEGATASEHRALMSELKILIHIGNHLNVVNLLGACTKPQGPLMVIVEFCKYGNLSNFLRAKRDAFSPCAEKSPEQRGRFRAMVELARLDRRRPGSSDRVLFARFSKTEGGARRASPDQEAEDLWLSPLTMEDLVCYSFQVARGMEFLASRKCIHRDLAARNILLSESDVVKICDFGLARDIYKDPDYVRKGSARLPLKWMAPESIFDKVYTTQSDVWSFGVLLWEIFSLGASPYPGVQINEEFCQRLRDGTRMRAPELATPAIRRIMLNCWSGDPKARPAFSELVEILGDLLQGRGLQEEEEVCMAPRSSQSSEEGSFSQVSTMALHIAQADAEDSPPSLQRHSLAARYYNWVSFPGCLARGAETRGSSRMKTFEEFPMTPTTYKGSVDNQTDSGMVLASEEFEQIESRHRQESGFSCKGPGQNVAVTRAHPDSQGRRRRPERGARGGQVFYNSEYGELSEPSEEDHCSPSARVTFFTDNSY
Procedure: as §1, §2

Structure (SMILES)	inhibition at 0.5 µM [1]	inhibition at 0.5 µM [2]	inhibition at 0.5 µM [3]	inhibition at 0.5 µM [4]	inhibition at 0.5 µM [5]	inhibition at 0.5 µM [6]
C=CC(=O)Nc1cccc(Sc2ccnc(Nc3ccc(N4CCOCC4)cc3)n2)c1 [Compound 23, N-(3-(2-(4-morpholinophenylamino)pyrimidin-4-ylthio)phenyl)acrylamide]	100%	84%	97%			
C=CC(=O)Nc1ccc(Sc2ccnc(Nc3ccc(N4CCOCC4)cc3)n2)cc1 [Compound 25, N-(4-(2-(4-morpholinophenylamino)pyrimidin-4-ylthio)phenyl)acrylamide]	97%	83%	71%			
C=CC(=O)Nc1cccc(Nc2nccc(Sc3ccc(OC)cc3)n2)c1 [Compound 42, N-(3-(4-(4-methoxyphenylthio)pyrimidin-2-ylao)phenyl)acrylamide]	100%	100%	59%	100%		
C=CC(=O)Nc1ccc(Sc2ccnc(Nc3cccc(N4CCOCC4)c3)n2)cc1 [Compound 77, N-(4-(2-(3-morpholinophenylao)pyrimidin-4-ylthio)phenyl)acrylamide]	100%	100%	100%	100%		
C=CC(=O)Nc1cccc(Sc2ccnc(Nc3cccc(N4CCOCC4)c3)n2)c1 [Compound 110, N-(3-(2-(3-morpholinophenylao)pyrimidin-4-ylthio)phenyl)acrylamide]	100%	100%	100%	100%		
C=CC(=O)NCc1ccc(Sc2ccnc(Nc3ccc(N4CCOCC4)cc3)n2)cc1 [Compound 111, N-(4-(2-(4-morpholinophenylamino)pyrimidin-4-ylthio)benzyl)acrylamide]	100%	100%	100%	100%		
C=CC(=O)NCc1cccc(Sc2ccnc(Nc3ccc(N4CCOCC4)cc3)n2)c1 [Compound 112, N-(3-(2-(4-morpholinophenylamino)pyrimidin-4-ylthio)benzyl)acrylamide]	100%	100%	100%	100%		
C=CC(=O)Nc1ccc(Sc2ccnc(Nc3ccc(N4CCOCC4)cc3)n2)cc1OC [Compound 123, N-(2-methoxy-4-(2-(4-morpholinophenylao)pyrimidin-4-ylthio)phenyl)acrylamide]	100%	100%	100%	100%		
N#Cc1nnnn1Cc1ccc(Sc2ccnc(Nc3ccc(N4CCOCC4)cc3)n2)cc1 [Compound 155, 1-(4-(2-(4-morpholinophenylao)pyrimidin-4-ylthio)benzyl)-1H-tetrazole-5-carbonitrile]	86%	81%	40%	98%	74%	99%
N#Cc1nnn(Cc2ccc(Sc3ccnc(Nc4ccc(N5CCOCC5)cc4)n3)cc2)n1 [Compound 156, 2-(4-(2-(4-morpholinophenylao)pyrimidin-4-ylthio)benzyl)-2H-tetrazole-5-carbonitrile]	83%	81%	41%	97%	80%	94%
Cc1cc(N)ccc1Sc1nc(Nc2ccc(N3CCOCC3)cc2)ncc1C [Compound 162, 4-(4-ao-2-methylphenylthio)-5-methyl-N-(4-morpholinophenyl)pyrimidin-2-ae]	55%		50%	95%	82%	98%
C=CC(=O)Nc1ccc(Sc2nc(Nc3ccc(N4CCOCC4)cc3)ncc2C)c(C)c1 [Compound 163, N-(3-methyl-4-(5-methyl-2-(4-morpholinophenylao)pyrimidin-4-ylthio)phenyl)acrylamide]	85%		95%	97%	83%	99%
Cc1cnc(Nc2ccc(N3CCOCC3)cc2)nc1Sc1c(C)cc(N)cc1C [Compound 165, 4-(4-ao-2,6-dimethylphenylthio)-5-methyl-N-(4-morpholinophenyl)pyrimidin-2-ae]	40%		0%	86%	43%	99%
C=CC(=O)N(C)c1ccc(Sc2nc(Nc3ccc(N4CCOCC4)cc3)ncc2C)cc1 [Compound 173, N-methyl-N-(4-(5-methyl-2-(4-morpholinophenylao)pyrimidin-4-ylthio)phenyl)acrylamide]	94%	93%	93%	96%	95%	98%
N#Cc1ncn(Cc2ccc(Sc3ccnc(Nc4ccc(N5CCOCC5)cc4)n3)cc2)c1C#N [Compound 201, 1-(4-(2-(4-morpholinophenylao)pyrimidin-4-ylthio)benzyl)-1H-imidazole-4,5-dicarbonitrile]	100%	100%	100%	100%		
Cc1cnc(Nc2ccc(N3CCOCC3)cc2)nc1Sc1ccc(N2C(=O)CSCC2=O)cc1 [Compound 231, 4-(4-(5-methyl-2-(4-morpholinophenylao)pyrimidin-4-ylthio)phenyl)thiomorpholine-3,5-dione]	99%	91%	82%	99%	95%	100%
CC#CC(=O)Nc1ccc(Sc2ccnc(Nc3cccc(N4CCOCC4)c3)n2)cc1 [Compound 233, N-(4-(2-(3-morpholinophenylao)pyrimidin-4-ylthio)phenyl)but-2-ynamide]	89%		85%	98%	99%	99%
C=CC(=O)Nc1ccc(Sc2nc(Nc3cccc(OC)c3)ncc2C)cc1 [Compound 235, N-(4-(2-(3-methoxyphenylao)-5-methylpyrimidin-4-ylthio)phenyl)acrylamide]	79%		86%	96%	86%	99%
C=CC(=O)Nc1ccc(Sc2nc(Nc3cccc(N4CCOCC4)c3)ncc2C)cc1 [Compound 237, N-(4-(5-methyl-2-(3-morpholinophenylao)pyrimidin-4-ylthio)phenyl)acrylamide]	92%		96%	97%	98%	99%
C=CC(=O)Nc1ccc(Sc2ccnc(Nc3ccc(N4CCN(C)CC4)cc3)n2)cc1 [Compound 238, N-(4-(2-(4-(4-methylpiperazin-1-yl)phenylao)pyrimidin-4-ylthio)phenyl)acrylamide]	90%		99%	95%	97%	99%
C=CC(=O)Nc1ccc(Sc2nc(Nc3ccc(N4CCN(C)CC4)cc3)ncc2C)cc1 [Compound 239, N-(4-(5-methyl-2-(4-(4-methylpiperazin-1-yl)phenylao)pyrimidin-4-ylthio)phenyl)acrylamide]	99%	97%	99%	96%	100%	100%
C=CC(=O)Nc1ccc(Sc2nc(Nc3ccc(OC)c(OC)c3)ncc2C)cc1 [Compound 241, N-(4-(2-(3,4-dimethoxyphenylao)-5-methylpyrimidin-4-ylthio)phenyl)acrylamide]	92%	88%	98%	97%	100%	100%
